Source: patent publication US6255303A, “Phthalazinone PDE III/IV inhibitors” (Byk Gulden Lomberg Chemische Fabrik GmbH, priority 1998, dated 2001)

Tests used:
PDE4 = assay: Inhibition of PDE isoenzymes: PDE4 (cAMP-specific), cytosol of human polymorphonuclear leukocytes, cAMP as substrate; type: biochemical; settings: cytosol of human PMNL; 0.5 μM cAMP; motapizone (1 μM) to suppress PDE3; pH 7.4, 37° C., 15 min
PDE3 = biological target: T1, PDE3 (Homo sapiens, UniProt Q14432); assay: Inhibition of PDE isoenzymes: PDE3 (cGMP-inhibited), homogenates of human blood platelets; type: biochemical; settings: 0.5 μM cAMP or cGMP, pH 7.4, 37° C., 15 min, read-out: -log IC50 PDE3 (converted)
T1 construct: investigated in homogenates of human blood platelets; from tissue; host or cells: human blood platelets (homogenate)
T1 sequence (Q14432 whole entry): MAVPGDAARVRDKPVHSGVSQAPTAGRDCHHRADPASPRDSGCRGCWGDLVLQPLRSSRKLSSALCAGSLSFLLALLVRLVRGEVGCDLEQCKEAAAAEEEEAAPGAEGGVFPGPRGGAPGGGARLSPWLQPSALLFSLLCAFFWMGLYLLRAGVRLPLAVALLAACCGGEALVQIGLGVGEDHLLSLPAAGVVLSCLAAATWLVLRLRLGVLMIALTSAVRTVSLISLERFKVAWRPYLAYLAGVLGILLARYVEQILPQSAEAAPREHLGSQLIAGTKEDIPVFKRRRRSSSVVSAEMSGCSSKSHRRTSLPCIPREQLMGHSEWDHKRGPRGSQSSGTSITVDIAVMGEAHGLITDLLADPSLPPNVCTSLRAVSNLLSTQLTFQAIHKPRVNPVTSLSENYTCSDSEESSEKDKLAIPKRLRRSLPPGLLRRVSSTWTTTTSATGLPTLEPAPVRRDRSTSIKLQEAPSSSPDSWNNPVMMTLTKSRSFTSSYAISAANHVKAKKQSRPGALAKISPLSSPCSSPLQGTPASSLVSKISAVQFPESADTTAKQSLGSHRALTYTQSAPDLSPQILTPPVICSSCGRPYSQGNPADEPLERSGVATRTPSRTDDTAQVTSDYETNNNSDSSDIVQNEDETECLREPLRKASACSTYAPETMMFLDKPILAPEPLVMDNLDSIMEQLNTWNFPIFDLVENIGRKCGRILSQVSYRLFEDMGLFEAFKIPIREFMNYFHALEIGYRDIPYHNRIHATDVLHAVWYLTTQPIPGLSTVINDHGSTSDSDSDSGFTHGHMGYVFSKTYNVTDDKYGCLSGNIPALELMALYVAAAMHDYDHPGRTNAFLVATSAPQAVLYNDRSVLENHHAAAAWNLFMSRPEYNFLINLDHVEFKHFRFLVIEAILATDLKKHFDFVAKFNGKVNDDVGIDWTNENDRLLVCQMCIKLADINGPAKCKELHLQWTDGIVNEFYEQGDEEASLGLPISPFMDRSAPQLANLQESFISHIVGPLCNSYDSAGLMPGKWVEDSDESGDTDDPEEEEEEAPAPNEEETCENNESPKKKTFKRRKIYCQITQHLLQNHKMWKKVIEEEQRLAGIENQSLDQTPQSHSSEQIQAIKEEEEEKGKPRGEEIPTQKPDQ

SMILES	-log IC50 PDE4 (PDE4) [mol/l]	IC50 (PDE3) [nM]
COc1ccc(C2=NN(CC(=O)Nc3ccc(-c4ccc(=O)[nH]n4)cc3)C(=O)[C@@H]3CC=CC[C@H]23)cc1OC (relative stereo) [Compound 5]	8.10	1260
COc1ccc(C2=NN(c3ccc(C4=NNC(=O)CC4C)cc3)C(=O)[C@H]3CC=CC[C@@H]23)cc1Cl (relative stereo) [Compound 12, (cis)-4-(3-chloro-4-methoxyphenyl)-2-{4-(4-methyl-6-oxo-1,4,5,6-tetrahydropyridazin-3-yl)phenyl}-4a,5,8,8a-tetrahydro-2H-phthalazin-1-one]	7.00	81.3
COc1ccc(C2=NN(CCCCOc3ccc(C4=NNC(=O)CC4C)cc3)C(=O)[C@H]3CC=CC[C@@H]23)cc1Cl (relative stereo) [Compound 13, (cis)-6-(4-[4-{4-(3-Chloro-4-methoxyphenyl)-1-oxo-4a,5,8,8a-tetrahydro-2H-phthalazin-2-yl}-1-butyloxy)phenyl]-4,5-dihydro-5-methyl-2H-pyridazin-3-one]	7.77	35.5
COc1ccc(C2=NN(C(C)CCC(=O)Nc3ccc(C4=NNC(=O)CC4C)cc3)C(=O)[C@H]3CC=CC[C@@H]23)cc1OC (relative stereo) [Compound 8, (cis)-N-{4-(4-Methyl-6-oxo-1,4,5,6-tetrahydro-pyridazin-3-yl)phenyl}-4-{4-(3,4-dimethoxyphenyl)-1-oxo-4a,5,8,8a-tetrahydro-1H-phthalazin-2-yl}valeramide]	8.17	100
CCOc1ccc(C2=NN(CCCCOc3ccc(C4=NNC(=O)CC4C)cc3)C(=O)[C@H]3CC=CC[C@@H]23)cc1OCC (relative stereo) [Compound 15, (cis)-6-(4-[4-{4-(3,4-diethoxyphenyl)-1-oxo-4a,5,8,8a-tetrahydro-2H-phthalazin-2-yl}-1-butyloxy)phenyl]-4,5-dihydro-5-methyl-2H-pyridazin-3-one]	8.60	209
COc1ccc(C2=NN(c3ccc(C4=NNC(=O)CC4C)cc3)C(=O)[C@@H]3CC=CC[C@H]23)cc1OC (stereo partly drawn) [Compound 16, (4aS,8aR)-4-[4-{4-(3,4-dimethoxyphenyl)-1-oxo-4a,5,8,8a-tetrahydro-2H-phthalazin-2-yl}phenyl]-5,6-dihydro-5-methylpyridazin-1-one]	8.64	437
COc1ccc(C2=NN(c3ccc(C(=O)Nc4ccc(C5=NNC(=O)CC5C)cc4)cc3)C(=O)[C@H]3CC=CC[C@@H]23)cc1OC (relative stereo) [Compound 4, (cis)-N-{4-(4-Methyl-6-oxo-1,4,5,6-tetrahydro-pyridazin-3-yl)phenyl}-4-{4-(3,4-dimethoxyphenyl)-1-oxo-4a,5,8,8a-tetrahydro-1H-phthalazin-2-yl}benzamide]	8.48	891
COc1ccc(C2=NN(CC(=O)Nc3ccc(C4=NNC(=O)CC4C)cc3)C(=O)[C@H]3CC=CC[C@@H]23)cc1OC (relative stereo) [Compound 7, (cis)-N-{4-(4-Methyl-6-oxo-1,4,5,6-tetrahydro-pyridazin-3-yl)phenyl}-2-{4-(3,4-dimethoxy-phenyl)-1-oxo-4a,5,8,8a-tetrahydro-1H-phthalazin-2-yl}acetamide]	8.40	182
COc1ccc(C2=NN(CCCCC(=O)Nc3ccc(-c4ccc(=O)[nH]n4)cc3)C(=O)[C@@H]3CC=CC[C@H]23)cc1OC (relative stereo) [Compound 6]	8.17	832
COc1ccc(C2=NN(c3ccc(C4=NNC(=O)CC4C)cc3)C(=O)[C@H]3CC=CC[C@@H]23)cc1OC (relative stereo) [Compound 2, (cis)-4-(3,4-Dimethoxyphenyl)-2-{4-(4-methyl-6-oxo-1,4,5,6-tetrahydropyridazin-3-yl)phenyl}-4a,5,8,8a-tetrahydro-2H-phthalazin-1-one]	8.36	204
CCOc1ccc(C2=NN(c3ccc(C4=NNC(=O)CC4C)cc3)C(=O)[C@H]3CC=CC[C@@H]23)cc1OCC (relative stereo) [Compound 14, (cis)-4-(3,4-diethoxyphenyl)-2-{4-(4-methyl-6-oxo-1,4,5,6-tetrahydropyridazin-3-yl)phenyl}-4a,5,8,8a-tetrahydro-2H-phthalazin-1-one]	8.05	275
COc1ccc(C2=NN(c3ccc(C(=O)Nc4ccc(-c5ccc(=O)[nH]n5)cc4)cc3)C(=O)[C@H]3CC=CC[C@@H]23)cc1OC (relative stereo) [Compound 9, (cis)-N-{4-(6-Oxo-1,6-dihydro-pyridazin-3-yl)phenyl}-4-(4-{3,4-dimethoxyphenyl}-1-oxo-4a,5,8,8a-tetrahydro-1H-phthalazin-2-yl)benzamide]	9.08	4900
